Like-named read-outs stand apart in the source and are kept apart here.
Legend:
[1] = target: T1, LPA2 receptors from the mouse (Mus musculus, UniProt Q9JL06); test: Calcium-mobilization assay (FURA-2), mouse LPA2; format: cell-based
T1 construct: expressed in transfected cells
Protocol: We investigated structure-activity relationships across species, LPAR subtypes and between Rx100 and two known process impurities encountered in manufacture: Rx103 (‘E’ isomer) and Rx200 (oleyl phosphate and impurity, which can be an Rx100 degradant along with oleyl alcohol). Rx100, Rx103, Rx200 and native LPA were investigated at different human LPAR subtypes. In addition, the activity of these compounds was evaluated at LPA2 receptors from the rhesus, rat and mouse species. Human LPA1/2/3 subtypes were transfected into mouse embryonic fibroblasts (MEF) or rat hepatoma cells (RH7777)—both of which are normally non-responsive or null to LPA. Human LPA4 was transfected into Chinese hamster ovary (CHO) cells and LPA5 into the B103 neuroblastoma cell line. […] The B103 rat neuroblastoma cell line is endogenously nonresponsive to LPA but expresses heterologous LPA5 receptors well. […] LPAR activation elicits a G-protein-mediated transient rise in intracellular calcium level that is proportional to the concentration of LPA applied. The intracellular calcium level was quantified by the calcium-selective fluorescent indicator FURA-2 (e.g., increased intracellular calcium surge=increased fluorescence).

[2] = test system: S. typhimurium strains TA98, TA100, TA1535 and TA1537 and E. coli strain WP2uvrA; format: cell-based
Protocol: An Ames assay was conducted on Rx100.Lysine using S. typhimurium strains TA98, TA100, TA1535 and TA1537 and E. coli strain WP2uvrA. Two trials were performed. […] See Tables 38A and 38B, respectively. In the second trial, doses ranged from 0.160 to 16 μg/plate with some strains tested with activation and others without activation.

[3] = test system: male telemetered cynomolgus monkeys; test: Cardiovascular safety pharmacology in telemetered monkeys; format: in vivo; conditions: SC 0.1, 0.5 and 2.0 mg/kg as the free acid
Protocol: Four male telemetered cynomolgus monkeys were selected, and assigned via a Latin Square design to receive four doses of Rx100.lysine or vehicle via subcutaneous injection at doses of 0 (10 mM histidine in sterile water for injection, USP), 0.1, 0.5 and 2.0 mg/kg as the free acid. Parameters evaluated include clinical observations, body temperature, arterial pressure and ECG evaluations (PR, QT, QRS durations). QTc values were calculated based on data collected for each animal.

[4] = test system: male Sprague Dawley rats; test: Central nervous system safety pharmacology, modified Irwin battery; format: in vivo; conditions: SC 1.81, 6.33 and 18.1 mg/kg; through 24 hours post-dose
Protocol: Four groups of male Sprague Dawley rats (n=8/group) were administered Rx100.lysine via subcutaneous injection at doses of 0 (10 mM histidine in sterile water for Injection, USP), 1.81, 6.33 and 18.1 mg/kg as the free acid. Animals were assessed pre-dose and through 24 hours post-dose for a variety of behavioral, neurological and autonomic responses using the modified Irwin battery of assessments. Dose formulation analyses were conducted and samples ranged from 99 to 104% of target. The only effect observed was a small (0.8 to 1.5 degrees C.) decrease in body temperature noted at 2-4 hours postdose.

[5] = test system: bone marrow cells (micronucleated PCEs); test: In vivo rat bone marrow micronucleus assay; design: species or system Sprague-Dawley rats; conditions: 500 mg/kg single subcutaneous dose

T1 sequence (Q9JL06 whole entry): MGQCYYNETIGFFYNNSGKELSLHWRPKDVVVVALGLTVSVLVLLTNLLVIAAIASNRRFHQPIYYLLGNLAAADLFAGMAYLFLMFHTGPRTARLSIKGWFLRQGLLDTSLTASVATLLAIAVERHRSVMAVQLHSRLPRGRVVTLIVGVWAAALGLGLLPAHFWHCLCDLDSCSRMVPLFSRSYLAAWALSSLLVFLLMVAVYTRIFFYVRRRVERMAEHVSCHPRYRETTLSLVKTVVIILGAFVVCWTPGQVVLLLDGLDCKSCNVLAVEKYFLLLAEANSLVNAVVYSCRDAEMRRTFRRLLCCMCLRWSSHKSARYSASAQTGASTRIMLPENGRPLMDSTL

CCCCCCCC/C=C\CCCCCCCCOP(O)(O)=S [Rx100, (Z)—O-octadec-9-en-1-yl O,O-dihydrogen phosphorothioate]
EC50 [1]: 167 nM
Emax ([1]; read-out: Emax (% of LPA)): 100%

CCCCCCCC/C=C\CCCCCCCCOP(O)(O)=S [Rx100.L-Lysine, (Z)—O-octadec-9-en-1-yl O,O-dihydrogen phosphorothioate]
Ames assay, overall result [2]: negative
Genotoxic Effects ([2]; Bacterial Reverse Mutation Assay, plate incorporation 52 ± 4 hours): Genotoxic Effects: None
Revertant Colony Counts (Mean ± SD) ([2]; TA98, with metabolic activation, 1.45 μg/plate): 17 ± 5 ^N
Revertant Colony Counts (Mean ± SD) ([2]; TA98, with metabolic activation, 4.52 μg/plate): 19 ± 3 ^N
Revertant Colony Counts (Mean ± SD) ([2]; TA98, with metabolic activation, 14.5 μg/plate): 16 ± 5 ^N
Revertant Colony Counts (Mean ± SD) ([2]; TA98, with metabolic activation, 45.2 μg/plate): 20 ± 6 ^N
Revertant Colony Counts (Mean ± SD) ([2]; TA98, with metabolic activation, 145 μg/plate): 0 ± 0 ^E
Revertant Colony Counts (Mean ± SD) ([2]; TA98, with metabolic activation, 452 μg/plate): 0 ± 0 ^V
Revertant Colony Counts (Mean ± SD) ([2]; TA98, with metabolic activation, 1450 μg/plate): 0 ± 0 ^A
Revertant Colony Counts (Mean ± SD) ([2]; TA98, with metabolic activation, 4520 μg/plate): 0 ± 0 ^A
Revertant Colony Counts (Mean ± SD) ([2]; TA100, with metabolic activation, 1.45 μg/plate): 114 ± 12 ^N
Revertant Colony Counts (Mean ± SD) ([2]; TA100, with metabolic activation, 4.52 μg/plate): 117 ± 5 ^N
Revertant Colony Counts (Mean ± SD) ([2]; TA100, with metabolic activation, 14.5 μg/plate): 89 ± 14 ^N
Revertant Colony Counts (Mean ± SD) ([2]; TA100, with metabolic activation, 45.2 μg/plate): 26 ± 3 ^E
Revertant Colony Counts (Mean ± SD) ([2]; TA100, with metabolic activation, 145 μg/plate): 39 ± 3 ^M R
Revertant Colony Counts (Mean ± SD) ([2]; TA100, with metabolic activation, 452 μg/plate): 0 ± 0 ^A T
Revertant Colony Counts (Mean ± SD) ([2]; TA100, with metabolic activation, 1450 μg/plate): 0 ± 0 ^M A T
Revertant Colony Counts (Mean ± SD) ([2]; TA100, with metabolic activation, 4520 μg/plate): 0 ± 0 ^A T
Revertant Colony Counts (Mean ± SD) ([2]; TA1535, with metabolic activation, 0.0181 μg/plate): 10 ± 4 ^N M
Revertant Colony Counts (Mean ± SD) ([2]; TA1535, with metabolic activation, 0.0452 μg/plate): 11 ± 2 ^C M N
Revertant Colony Counts (Mean ± SD) ([2]; TA1535, with metabolic activation, 0.145 μg/plate): 9 ± 3 ^N
Revertant Colony Counts (Mean ± SD) ([2]; TA1535, with metabolic activation, 0.452 μg/plate): 13 ± 1 ^N
Revertant Colony Counts (Mean ± SD) ([2]; TA1535, with metabolic activation, 1.45 μg/plate): 11 ± 5 ^N
Revertant Colony Counts (Mean ± SD) ([2]; TA1535, with metabolic activation, 4.52 μg/plate): 9 ± 1 ^N
Revertant Colony Counts (Mean ± SD) ([2]; TA1535, with metabolic activation, 14.5 μg/plate): 11 ± 3 ^N
Revertant Colony Counts (Mean ± SD) ([2]; TA1537, with metabolic activation, 1.45 μg/plate): 9 ± 3 ^N
Revertant Colony Counts (Mean ± SD) ([2]; TA1537, with metabolic activation, 4.52 μg/plate): 7 ± 2 ^N M
Revertant Colony Counts (Mean ± SD) ([2]; TA1537, with metabolic activation, 14.5 μg/plate): 6 ± 5 ^M N
Revertant Colony Counts (Mean ± SD) ([2]; TA1537, with metabolic activation, 45.2 μg/plate): 3 ± 2 ^E
Revertant Colony Counts (Mean ± SD) ([2]; TA1537, with metabolic activation, 145 μg/plate): 0 ± 0 ^R
Revertant Colony Counts (Mean ± SD) ([2]; TA1537, with metabolic activation, 452 μg/plate): 0 ± 0 ^V
Revertant Colony Counts (Mean ± SD) ([2]; TA1537, with metabolic activation, 1450 μg/plate): 0 ± 0 ^V
Revertant Colony Counts (Mean ± SD) ([2]; TA1537, with metabolic activation, 4520 μg/plate): 0 ± 0 ^A
Revertant Colony Counts (Mean ± SD) ([2]; WP2uvrA, with metabolic activation, 1.45 μg/plate): 13 ± 4 ^N
Revertant Colony Counts (Mean ± SD) ([2]; WP2uvrA, with metabolic activation, 4.52 μg/plate): 17 ± 4 ^M N
Revertant Colony Counts (Mean ± SD) ([2]; WP2uvrA, with metabolic activation, 14.5 μg/plate): 19 ± 4 ^N
Revertant Colony Counts (Mean ± SD) ([2]; WP2uvrA, with metabolic activation, 45.2 μg/plate): 12 ± 4 ^N
Revertant Colony Counts (Mean ± SD) ([2]; WP2uvrA, with metabolic activation, 145 μg/plate): 15 ± 4 ^N M
Revertant Colony Counts (Mean ± SD) ([2]; WP2uvrA, with metabolic activation, 452 μg/plate): 15 ± 5 ^N
Revertant Colony Counts (Mean ± SD) ([2]; WP2uvrA, with metabolic activation, 1450 μg/plate): 9 ± 3 ^N
Revertant Colony Counts (Mean ± SD) ([2]; WP2uvrA, with metabolic activation, 4520 μg/plate): 0 ± 0 ^E
Revertant Colony Counts (Mean ± SD) ([2]; Without Metabolic Activation, TA98, 0.0181 μg/plate): 15 ± 3 ^N
Revertant Colony Counts (Mean ± SD) ([2]; Without Metabolic Activation, TA98, 0.0452 μg/plate): 15 ± 5 ^N M
Revertant Colony Counts (Mean ± SD) ([2]; Without Metabolic Activation, TA98, 0.145 μg/plate): 13 ± 2 ^N M
Revertant Colony Counts (Mean ± SD) ([2]; Without Metabolic Activation, TA98, 0.452 μg/plate): 13 ± 5 ^N
Revertant Colony Counts (Mean ± SD) ([2]; Without Metabolic Activation, TA98, 1.45 μg/plate): 14 ± 2 ^N
Revertant Colony Counts (Mean ± SD) ([2]; Without Metabolic Activation, TA98, 4.52 μg/plate): 12 ± 4 ^N
Revertant Colony Counts (Mean ± SD) ([2]; Without Metabolic Activation, TA98, 14.5 μg/plate): 12 ± 3 ^N
Revertant Colony Counts (Mean ± SD) ([2]; Without Metabolic Activation, TA100, 0.0181 μg/plate): 92 ± 8 ^N
Revertant Colony Counts (Mean ± SD) ([2]; Without Metabolic Activation, TA100, 0.0452 μg/plate): 93 ± 16 ^N
Revertant Colony Counts (Mean ± SD) ([2]; Without Metabolic Activation, TA100, 0.145 μg/plate): 88 ± 11 ^N
Revertant Colony Counts (Mean ± SD) ([2]; Without Metabolic Activation, TA100, 0.452 μg/plate): 86 ± 13 ^N
Revertant Colony Counts (Mean ± SD) ([2]; Without Metabolic Activation, TA100, 1.45 μg/plate): 84 ± 16 ^N
Revertant Colony Counts (Mean ± SD) ([2]; Without Metabolic Activation, TA100, 4.52 μg/plate): 53 ± 7 ^R
Revertant Colony Counts (Mean ± SD) ([2]; Without Metabolic Activation, TA100, 14.5 μg/plate): 51 ± 4 ^M R
Revertant Colony Counts (Mean ± SD) ([2]; Without Metabolic Activation, TA1535, 0.0181 μg/plate): 15 ± 4 ^N
Revertant Colony Counts (Mean ± SD) ([2]; Without Metabolic Activation, TA1535, 0.0452 μg/plate): 16 ± 2 ^N
Revertant Colony Counts (Mean ± SD) ([2]; Without Metabolic Activation, TA1535, 0.145 μg/plate): 12 ± 1 ^N
Revertant Colony Counts (Mean ± SD) ([2]; Without Metabolic Activation, TA1535, 0.452 μg/plate): 11 ± 3 ^N
Revertant Colony Counts (Mean ± SD) ([2]; Without Metabolic Activation, TA1535, 1.45 μg/plate): 11 ± 2 ^N
Revertant Colony Counts (Mean ± SD) ([2]; Without Metabolic Activation, TA1535, 4.52 μg/plate): 8 ± 3 ^N
Revertant Colony Counts (Mean ± SD) ([2]; Without Metabolic Activation, TA1535, 14.5 μg/plate): 4 ± 1 ^R M
Revertant Colony Counts (Mean ± SD) ([2]; Without Metabolic Activation, TA1537, 0.0181 μg/plate): 6 ± 4 ^N
Revertant Colony Counts (Mean ± SD) ([2]; Without Metabolic Activation, TA1537, 0.0452 μg/plate): 6 ± 3 ^N M
Revertant Colony Counts (Mean ± SD) ([2]; Without Metabolic Activation, TA1537, 0.145 μg/plate): 5 ± 0 ^M N
Revertant Colony Counts (Mean ± SD) ([2]; Without Metabolic Activation, TA1537, 0.452 μg/plate): 6 ± 3 ^M N
Revertant Colony Counts (Mean ± SD) ([2]; Without Metabolic Activation, TA1537, 1.45 μg/plate): 5 ± 2 ^N
Revertant Colony Counts (Mean ± SD) ([2]; Without Metabolic Activation, TA1537, 4.52 μg/plate): 3 ± 4 ^N
Revertant Colony Counts (Mean ± SD) ([2]; Without Metabolic Activation, TA1537, 14.5 μg/plate): 1 ± 1 ^R M
Revertant Colony Counts (Mean ± SD) ([2]; Without Metabolic Activation, WP2uvrA, 1.45 μg/plate): 12 ± 5 ^N
Revertant Colony Counts (Mean ± SD) ([2]; Without Metabolic Activation, WP2uvrA, 4.52 μg/plate): 13 ± 3 ^M N
Revertant Colony Counts (Mean ± SD) ([2]; Without Metabolic Activation, WP2uvrA, 14.5 μg/plate): 17 ± 6 ^N
Revertant Colony Counts (Mean ± SD) ([2]; Without Metabolic Activation, WP2uvrA, 45.2 μg/plate): 14 ± 4 ^N
Revertant Colony Counts (Mean ± SD) ([2]; Without Metabolic Activation, WP2uvrA, 145 μg/plate): 15 ± 3 ^N
Revertant Colony Counts (Mean ± SD) ([2]; Without Metabolic Activation, WP2uvrA, 452 μg/plate): 12 ± 2 ^N
Revertant Colony Counts (Mean ± SD) ([2]; Without Metabolic Activation, WP2uvrA, 1450 μg/plate): 8 ± 3 ^E
Revertant Colony Counts (Mean ± SD) ([2]; Without Metabolic Activation, WP2uvrA, 4520 μg/plate): 0 ± 0 ^E
revertant colonies ([2]; any strain, any concentration (1.6 to 5000 μg/plate; 0.160 to 16 μg/plate), with or without metabolic activation): No increase in revertant colonies
ECG intervals [3]: no meaningful changes in PR, QRS, QT and QTc
heart rate [3]: slight dose-dependent increase in heart rate
other parameters of the modified Irwin battery [4]: No other effects
Mean % MNPC (±SD) Male ([5]; harvest 24 hour): 0.09%
Mean Ratio PCE:NCE (±SD) Male ([5]; harvest 24 hour): 0.52
Mean % MNPC (±SD) Male ([5]; harvest 48 hour): 0.08%

From patent US20170226139A1, “CRYSTALLINE SALTS OF (Z)-O-OCTADEC-9-EN-1-YL O,O-DIHYDROGEN PHOSPHOROTHIOATE” (priority 2013, published 2017)
